In publication PMC8704709, “Improved Anticancer Activities of a New Pentafluorothio-Substituted Vorinostat-Type Histone Deacetylase Inhibitor” (Pharmaceuticals, 2021):

Biological target: T1, human recombinant HDAC6 (Homo sapiens, UniProt Q9UBN7)
T1 construct: purchased BPS Biosciences, San Diego, CA, USA
T1 sequence (Q9UBN7 1-1215): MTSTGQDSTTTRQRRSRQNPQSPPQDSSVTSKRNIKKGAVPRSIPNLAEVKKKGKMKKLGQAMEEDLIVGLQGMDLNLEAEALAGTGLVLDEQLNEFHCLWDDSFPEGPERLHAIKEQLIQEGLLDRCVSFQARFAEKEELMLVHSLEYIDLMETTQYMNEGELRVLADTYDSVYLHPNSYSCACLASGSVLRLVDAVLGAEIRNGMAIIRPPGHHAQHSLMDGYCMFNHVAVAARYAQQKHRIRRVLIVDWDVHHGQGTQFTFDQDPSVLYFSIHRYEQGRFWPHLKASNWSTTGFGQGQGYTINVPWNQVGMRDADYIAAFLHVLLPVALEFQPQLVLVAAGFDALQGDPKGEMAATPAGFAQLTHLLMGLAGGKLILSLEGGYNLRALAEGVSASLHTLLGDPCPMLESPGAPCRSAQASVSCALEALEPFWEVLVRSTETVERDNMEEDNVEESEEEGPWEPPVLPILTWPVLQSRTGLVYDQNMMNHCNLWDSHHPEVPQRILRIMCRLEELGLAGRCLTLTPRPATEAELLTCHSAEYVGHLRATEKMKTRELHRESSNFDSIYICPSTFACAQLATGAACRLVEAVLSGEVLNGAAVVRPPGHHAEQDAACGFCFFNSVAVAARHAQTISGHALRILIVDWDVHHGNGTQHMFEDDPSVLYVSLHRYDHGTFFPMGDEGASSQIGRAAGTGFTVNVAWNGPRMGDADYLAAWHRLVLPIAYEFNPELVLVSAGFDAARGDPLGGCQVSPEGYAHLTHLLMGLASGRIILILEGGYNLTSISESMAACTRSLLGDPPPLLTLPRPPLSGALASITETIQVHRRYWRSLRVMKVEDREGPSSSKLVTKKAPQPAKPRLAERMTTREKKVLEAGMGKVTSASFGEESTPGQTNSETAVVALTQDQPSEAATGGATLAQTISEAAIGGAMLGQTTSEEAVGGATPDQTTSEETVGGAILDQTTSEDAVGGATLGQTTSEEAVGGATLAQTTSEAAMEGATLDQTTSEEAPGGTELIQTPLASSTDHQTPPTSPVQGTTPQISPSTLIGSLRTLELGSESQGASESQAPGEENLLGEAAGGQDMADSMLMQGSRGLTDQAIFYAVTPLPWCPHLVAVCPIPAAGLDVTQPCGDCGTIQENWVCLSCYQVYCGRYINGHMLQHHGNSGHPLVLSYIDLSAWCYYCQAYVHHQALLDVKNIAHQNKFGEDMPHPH
Assay: Fluorogenic subtype-specific HDAC assay
Format: biochemical
Details: cell-free enzymatic assay, 1–10 µM

## O=C(CCCCCCC(=O)Nc1ccc(S(F)(F)(F)(F)F)cc1)NO [SF5-SAHA]
  HDAC6 inhibition (comparison): distinctly stronger HDAC6 inhibition than SAHA
